We go through one compound from patent US8124051B2, “Complex drug delivery composition and method for treating cancer” (priority 2003, dated 2012).

The subject of data set [1] is xenografts of ovarian carcinoma cells. Nature of the data set: DOX treatment of mice xenografts of ovarian carcinoma cells. Type of data set: in vivo. Conditions: up to 25 days of treatment. From the text:
(§1) It has been shown that prolonged exposure or high concentrations of anticancer drugs leads to the development of drug resistance (Minko, et al. (2001) Dis. Manag. Clin. Outcomes 3:48-54; Minko, et al. (1999) J. Controlled Rel. 59:133-148; Pakunlu (2003) Pharm. Res. 20:351-359; Minko, et al. (1999) Pharm. Res. 16:986-996; Minko, et al. (2001) J. Control. Rel. 71:227-237). To analyze antiapoptotic resistance, the degree of apoptosis to doxorubicin (DOX), a traditional, well-established anticancer drug, was determined. The enrichment of cell lysate and media by mono- and oligonucleosomes was measured using a cell death detection ELISA kit. The expression of genes was measured by reverse transcription PCR (RT-PCR) using β2-microglobulin (β2-m) as an internal standard. […] Similar results were obtained after repeated incubation of human ovarian carcinoma cells with low doses of DOX (Minko, et al. (1999) supra; Minko, et al. (1999) supra) and after treatment of mice xenografts of ovarian carcinoma cells with DOX. […] Thus, suppression of this antiapoptotic cellular defense mechanism is desirable.

The test system of data set [2] is human ovarian carcinoma cells. Briefly: Cytotoxicity (IC50 dose) of Ant, Ant-BH3 peptide and DOX. The class given is cell-based. The conditions noted are these: Ovarian carcinoma cell; human ovarian carcinoma cells. Here is the method: By way of example, the effectiveness of a BH3 peptide ([…] SEQ ID NO:1) to increase cell death by inducing the mitochondrial dysfunction leading to necrosis was measured. BH3 peptide was delivered into human ovarian carcinoma cells by the Antennapedia (Ant) internalization sequence (Arg-Gln-Ile-lys-[…] SEQ ID NO:2). Mitochondrial function was assessed by flow cytometry analysis using the lipophilic cationic fluorescent probe 5,5′,6,6′-tetrachloro-1,1′,3,3′-tetraethylbenzimidazolcarbo-cyanine iodide (JC-1). This probe exists as a monomer, and upon excitation at 490 nm, emits light at 527 nm resulting in green fluorescence. At high mitochondrial transmembrane potential, JC-1 forms multimers, known as J-aggregates, and emits light at 590 nm upon excitation at 490 nm resulting in red fluorescence. Therefore, the red/green fluorescence ratio measured by flow cytometry reflects the number of functioning mitochondria. […] The effect of the Ant-BH3 peptide on mitochondrial transmembrane potential was also determined.
Cytotoxicity. The cytotoxicity of drugs were assessed using a modified MTT (3-(4,5-dimethylthiazol-2-yl)-2,5-diphenyltetrazolium bromide) assay (Kunath, et al. (2000) Eur. J. Pharm. Biopharm 49:11-15; Minko, et al. (1998) J. Controlled Rel. 54:223-233; Minko, et al. (1999) J. Controlled Rel. 59:133-148; Minko, et al. (2002) Cancer Chemother. Pharmacol. 50:143-150). […]

Data set [3] relates to human ovarian carcinoma cells. Nature of the data set: Apoptosis and BCL-2 expression after DOX (cell death ELISA, RT-PCR). The class given is cell-based.
Description: as §1
In general terms: ELISA stands for enzyme-linked immunosorbent assay.

For data set [4] the following is noted: healthy tissues and tumor; cited from earlier work.

In general, IC50 refers to the midpoint of a concentration-inhibition curve. Take `COc1cccc2c1C(=O)c1c(O)c3c(c(O)c1C2=O)C[C@@](O)(C(=O)CO)C[C@@H]3O[C@H]1C[C@H](N)[C@H](O)[C@H](C)O1` [DOX, doxorubicin]: the tumor size result in data set [1] is “decreased the tumor size”. In addition, the IC50 in data set [2] came out at 484 ± 36.4 nM. The cell response entry is “overexpressed the BCL-2 gene and developed resistance to apoptosis” in data set [3] (cells that survived exposure to high DOX concentrations); “responded to the treatment by apoptosis” in data set [3] (low DOX concentrations). Also, the tissue accumulation entry in data set [4] was “significant amount of free DOX accumulation in healthy tissues”.
